Source: PubChem BioAssay (NCI)
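Grown in 96-well plates, cells were treated for 48 hours with each compound at five concentrations. Insufficient inhibition: endpoint recorded as highest concentration tested. TGI: total growth inhibition.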

Legend:
Assay in all cases: growth of human tumour cells (NCI), 48 h
[1] = test system: MOLT-4 leukemia
[2] = test system: NCI/ADR-RES ovarian
[3] = test system: M14 melanoma
[4] = test system: NCI-H226 lung
[5] = test system: HCT-15 colon
[6] = test system: LOX IMVI melanoma
[7] = test system: T-47D breast
[8] = test system: HOP-92 NSCLC
[9] = test system: OVCAR-8 ovarian
[10] = test system: A549 NSCLC
[11] = test system: RPMI-8226 leukemia
[12] = test system: 786-0 renal
[13] = test system: MCF7 breast
[14] = test system: COLO 205 colon
[15] = test system: RXF 393 renal
[16] = test system: SF-295 CNS
[17] = test system: MALME-3M melanoma
[18] = test system: OVCAR-4 ovarian
[19] = test system: ACHN renal
[20] = test system: EKVX NSCLC
[21] = test system: SK-MEL-2 melanoma
[22] = test system: SNB-19 CNS
[23] = test system: IGROV1 ovarian
[24] = test system: SF-539 CNS
[25] = test system: A498 renal
[26] = test system: MDA-MB-435
[27] = test system: NCI-H460 lung
[28] = test system: TK-10 renal
[29] = test system: SK-MEL-28 melanoma
[30] = test system: HCC-2998 colon
[31] = test system: OVCAR-3 ovarian
[32] = test system: NCI-H23 lung
[33] = test system: SR leukemia
[34] = test system: U251 CNS
[35] = test system: DU-145 prostate
[36] = test system: NCI-H522 lung
[37] = test system: SNB-75 CNS
[38] = test system: CAKI-1 renal
[39] = test system: PC-3 prostate
[40] = test system: MDA-N
[41] = test system: SK-MEL-5 melanoma
[42] = test system: KM12 colon
[43] = test system: UACC-257 melanoma
[44] = test system: MDA-MB-231 breast
[45] = test system: K-562 leukemia
[46] = test system: SN12C renal
[47] = test system: HOP-62 NSCLC
[48] = test system: SF-268 CNS
[49] = test system: UO-31 renal
[50] = test system: OVCAR-5 ovarian
[51] = test system: HCT-116 colon
[52] = test system: SW-620 colon
[53] = test system: HS 578T breast
[54] = test system: BT-549 breast
[55] = test system: UACC-62 melanoma
[56] = test system: HL-60(TB) leukemia
[57] = test system: HT29 colon
[58] = test system: SK-OV-3 ovarian
[59] = test system: CCRF-CEM leukemia

Measured: TGI

CC(C)=CCC[C@@H](C)/C=C/C=C(\C)C(=O)CC[C@@H]1CC[N@+]2(C)CCCC[C@H]12
not listed: [56] | [57] | [58] | [59]
> 100 µM: all other assays above

O=C(O)CCCC(=O)Nn1c(Cc2ccc(Cl)cc2)n[nH]c1=O
not listed: [22] | [24] | [27] | [30] | [37]
> 100 µM: all other assays above
